Starred links: 1 amine or outer side, 2 acyl side, 3 side chain; linkers in the order of their positions; H or OH if unused. Non-standard residues stand in square brackets, D forms with d. Residues, ends and D or L forms follow the SMILES beside them. Groups on a side chain read outwards from the residue. *: point of attachment. X1 = O=C(CCCCCCCCCCCCCCCc1nnn[nH]1)NS(=O)(=O)CCCC(=O)*; C20 diacid = O=C(O)CCCCCCCCCCCCCCCCCCC(=O)*; γGlu = O=C(O)[C@H](CCC(=O)[*:2])N[*:1]; Desaminohistidyl = O=C(CCc1c[nH]cn1)*; AEEA = NCCOCCOCC(=O)O; Aib = CC(C)(N)C(=O)O; Inp = O=C(O)C1CCNCC1; GABA = NCCCC(=O)O
Target: human serum albumin (HSA) (Homo sapiens, UniProt P02768)
Assay: Albumin binding affinity, competition scintillation proximity assay
Experimental: Streptavidin-SPA beads (GE Healthcare RPNQ0009) were incubated with biotinylated HSA for 5 hours. The beads were washed with buffer to remove unbound HSA. […] After 20 hours of gentle rocking at room temperature the plates were centrifuged and counted on a TopCounter.

Sequence of human serum albumin (HSA) (P02768 25-609): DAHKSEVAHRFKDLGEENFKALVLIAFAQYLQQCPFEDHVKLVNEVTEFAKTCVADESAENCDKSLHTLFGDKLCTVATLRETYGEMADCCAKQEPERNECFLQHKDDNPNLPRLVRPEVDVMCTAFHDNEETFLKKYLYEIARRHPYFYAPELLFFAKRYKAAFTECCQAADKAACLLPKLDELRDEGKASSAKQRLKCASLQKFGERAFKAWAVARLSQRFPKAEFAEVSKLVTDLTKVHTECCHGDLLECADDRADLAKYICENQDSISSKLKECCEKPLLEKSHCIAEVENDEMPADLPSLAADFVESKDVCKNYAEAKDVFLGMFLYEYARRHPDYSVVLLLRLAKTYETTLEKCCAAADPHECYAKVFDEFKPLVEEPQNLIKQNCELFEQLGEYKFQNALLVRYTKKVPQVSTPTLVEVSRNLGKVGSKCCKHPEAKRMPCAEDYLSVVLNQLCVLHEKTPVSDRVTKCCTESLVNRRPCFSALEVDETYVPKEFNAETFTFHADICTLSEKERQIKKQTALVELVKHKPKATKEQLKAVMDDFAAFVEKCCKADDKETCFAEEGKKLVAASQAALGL

| SMILES | EC50 | EC50 at 20 h (human, biotinylated human serum albumin on streptavidin-SPA beads, pH 7.4) |
| --- | --- | --- |
| CC[C@H](C)[C@H](NC(=O)[C@H](Cc1ccccc1)NC(=O)[C@H](CCC(=O)O)NC(=O)[C@H](CCCNC(=N)N)NC(=O)[C@H](C)NC(=O)[C@H](C)NC(=O)[C@H](CCC(N)=O)NC(=O)[C@H](CCC(=O)O)NC(=O)[C@H](CCC(=O)O)NC(=O)[C@H](CC(C)C)NC(=O)[C@H](Cc1ccc(O)cc1)NC(=O)[C@H](CO)NC(=O)[C@H](CO)NC(=O)[C@@H](NC(=O)[C@H](CC(=O)O)NC(=O)[C@H](CO)NC(=O)[C@@H](NC(=O)[C@H](Cc1ccccc1)NC(=O)[C@@H](NC(=O)CNC(=O)[C@H](CCC(=O)O)NC(=O)C(C)(C)NC(=O)[C@@H](N)Cc1c[nH]cn1)[C@@H](C)O)[C@@H](C)O)C(C)C)C(=O)N[C@@H](C)C(=O)N[C@@H](Cc1c[nH]c2ccccc12)C(=O)N[C@@H](CC(C)C)C(=O)N[C@H](C(=O)N[C@@H](CCCNC(=N)N)C(=O)NCC(=O)N[C@@H](CCCNC(=N)N)C(=O)N[C@@H](CCCCNC(=O)COCCOCCNC(=O)COCCOCCNC(=O)CC[C@H](NC(=O)[C@H]1CC[C@H](CNC(=O)CCCCCCCCCCCCCCCCCCC(=O)O)CC1)C(=O)O)C(N)=O)C(C)C [Example 23, N-epsilon37-[2-(2-{2-[2-(2-{2-[(S)-4-Carboxy-4-({trans-4-[(19-carboxy-nonadecanoylamino)methyl]cyclohexanecarbonyl}amino)butyrylamino]ethoxy}ethoxy)acetylamino]ethoxy}ethoxy)acetyl][Aib8,Glu22,Arg26,Arg34,Lys37]GLP-1-(7-37)amide] | 800 to 2000 nM |  |
| CC[C@H](C)[C@H](NC(=O)[C@H](Cc1ccccc1)NC(=O)[C@H](CCC(=O)O)NC(=O)[C@H](CCCNC(=N)N)NC(=O)[C@H](C)NC(=O)[C@H](C)NC(=O)[C@H](CCC(N)=O)NC(=O)[C@H](CCC(=O)O)NC(=O)[C@H](CCC(=O)O)NC(=O)[C@H](CC(C)C)NC(=O)[C@H](Cc1ccc(O)cc1)NC(=O)[C@H](CO)NC(=O)[C@H](CO)NC(=O)[C@@H](NC(=O)[C@H](CC(=O)O)NC(=O)[C@H](CO)NC(=O)[C@@H](NC(=O)[C@H](Cc1ccccc1)NC(=O)[C@@H](NC(=O)CNC(=O)[C@H](CCC(=O)O)NC(=O)C(C)(C)NC(=O)[C@@H](N)Cc1c[nH]cn1)[C@@H](C)O)[C@@H](C)O)C(C)C)C(=O)N[C@@H](CCC(=O)O)C(=O)N[C@@H](Cc1c[nH]c2ccccc12)C(=O)N[C@@H](CC(C)C)C(=O)N[C@H](C(=O)N[C@@H](CCCCN)C(=O)NCC(=O)N[C@@H](CCCNC(=N)N)C(=O)N1CCC[C@H]1C(=O)N[C@@H](CCCCNC(=O)COCCOCCNC(=O)CC[C@H](NC(=O)CC[C@H](NC(=O)CCCNC(=O)CCCS(=O)(=O)NC(=O)CCCCCCCCCCCCCCCc1nnn[nH]1)C(=O)O)C(=O)O)C(=O)O)C(C)C [Example 51, [Aib8,Glu22,Arg26,Glu30,Pro37]GLP-1-(7-37)Lys [2-(2-{2-[4-Carboxy-4-(4-carboxy-4-{4-[4-(16-1H-tetrazol-5-yl-hexadecanoylsulfamoyl)butyrylamino]butyrylamino}butyrylamino)butyrylamino]ethoxy}ethoxy)acetyl]] (H-H[Aib]EGTFTSDVSSYLEEQAAREFIEWLVKGRPK([AEEA-γGlu-γGlu-GABA-X1])-OH) |  | 150 to 300 nM |
| CC[C@H](C)[C@H](NC(=O)[C@H](Cc1ccccc1)NC(=O)[C@H](CCC(=O)O)NC(=O)[C@H](CCCNC(=N)N)NC(=O)[C@H](C)NC(=O)[C@H](C)NC(=O)[C@H](CCC(N)=O)NC(=O)CNC(=O)[C@H](CCC(=O)O)NC(=O)[C@H](CC(C)C)NC(=O)[C@H](Cc1ccc(O)cc1)NC(=O)[C@H](CO)NC(=O)[C@H](CO)NC(=O)[C@@H](NC(=O)[C@H](CC(=O)O)NC(=O)[C@H](CO)NC(=O)[C@@H](NC(=O)[C@H](Cc1ccccc1)NC(=O)[C@@H](NC(=O)CNC(=O)[C@H](CCC(=O)O)NC(=O)[C@H](C)NC(=O)CCc1cnc[nH]1)[C@@H](C)O)[C@@H](C)O)C(C)C)C(=O)N[C@@H](C)C(=O)N[C@@H](Cc1c[nH]c2ccccc12)C(=O)N[C@@H](CC(C)C)C(=O)N[C@H](C(=O)N[C@@H](CCCNC(=N)N)C(=O)NCC(=O)N[C@@H](CCCNC(=N)N)C(=O)NCC(=O)N[C@@H](CCCCNC(=O)COCCOCCNC(=O)COCCOCCNC(=O)CC[C@H](NC(=O)[C@H]1CC[C@H](CNC(=O)CCCCCCCCCCCCCCCCCCC(=O)O)CC1)C(=O)O)C(N)=O)C(C)C [Example 28] | > 2000 nM |  |
| CC[C@H](C)[C@H](NC(=O)[C@H](Cc1ccccc1)NC(=O)[C@H](CCC(=O)O)NC(=O)[C@H](CCCNC(=N)N)NC(=O)[C@H](C)NC(=O)[C@H](C)NC(=O)[C@H](CCC(N)=O)NC(=O)[C@H](CCC(=O)O)NC(=O)[C@H](CCC(=O)O)NC(=O)[C@H](CC(C)C)NC(=O)[C@H](Cc1ccc(O)cc1)NC(=O)[C@H](CO)NC(=O)[C@H](CO)NC(=O)[C@@H](NC(=O)[C@H](CC(=O)O)NC(=O)[C@H](CO)NC(=O)[C@@H](NC(=O)[C@H](Cc1ccccc1)NC(=O)[C@@H](NC(=O)CNC(=O)[C@H](CCC(=O)O)NC(=O)[C@H](C)NC(=O)CCc1c[nH]cn1)[C@@H](C)O)[C@@H](C)O)C(C)C)C(=O)N[C@@H](C)C(=O)N[C@@H](Cc1c[nH]c2ccccc12)C(=O)N[C@@H](CC(C)C)C(=O)N[C@H](C(=O)N[C@@H](CCCNC(=N)N)C(=O)NCC(=O)N[C@@H](CCCNC(=N)N)C(=O)N[C@@H](CCCCNC(=O)COCCOCCNC(=O)COCCOCCNC(=O)CC[C@H](NC(=O)[C@H]1CC[C@H](CNC(=O)CCCCCCCCCCCCCCCCCCC(=O)O)CC1)C(=O)O)C(N)=O)C(C)C [Example 24, N-epsilon37-[2-(2-{2-[2-(2-{2-[(S)-4-Carboxy-4-({trans-4-[(19-carboxy-nonadecanoylamino)methyl]cyclohexanecarbonyl}amino)butyrylamino]ethoxy}ethoxy)acetylamino]ethoxy}ethoxy)acetyl][DesaminoHis7,Glu22,Arg26,Arg34,Lys37]GLP-1-(7-37)amide] | 800 to 2000 nM |  |
| CC[C@H](C)[C@H](NC(=O)[C@H](Cc1ccccc1)NC(=O)[C@H](CCC(=O)O)NC(=O)[C@H](CCCNC(=N)N)NC(=O)[C@H](C)NC(=O)[C@H](C)NC(=O)[C@H](CCC(N)=O)NC(=O)[C@H](CCC(=O)O)NC(=O)[C@H](CCC(=O)O)NC(=O)[C@H](CC(C)C)NC(=O)[C@H](Cc1ccc(O)cc1)NC(=O)[C@H](CO)NC(=O)[C@H](CO)NC(=O)[C@@H](NC(=O)[C@H](CC(=O)O)NC(=O)[C@H](CO)NC(=O)[C@@H](NC(=O)[C@H](Cc1ccccc1)NC(=O)[C@@H](NC(=O)CNC(=O)[C@H](CCC(=O)O)NC(=O)[C@H](C)NC(=O)CCc1c[nH]cn1)[C@@H](C)O)[C@@H](C)O)C(C)C)C(=O)N[C@@H](C)C(=O)N[C@@H](Cc1c[nH]c2ccccc12)C(=O)N[C@@H](CC(C)C)C(=O)N[C@H](C(=O)N[C@@H](CCCNC(=N)N)C(=O)NCC(=O)N[C@@H](CCCNC(=N)N)C(=O)NCC(=O)N[C@@H](CCCCNC(=O)COCCOCCNC(=O)COCCOCCNC(=O)CC[C@H](NC(=O)C1CCN(C(=O)CCCCCCCCCCCCCCCCCCC(=O)O)CC1)C(=O)O)C(N)=O)C(C)C [Example 14, [DesaminoHis7,Glu22,Arg26,Arg34]GLP-1-(7-37)Lys[2-(2-[2-(2-[2-(2-((S)-4-[1-[19-Carboxynonadecanoyl]piperidine-4-carbonylamino]-4-carboxybutyrylamino)ethoxy)ethoxy]acetylamino)ethoxy]ethoxy)acetyl]amide] (Desaminohistidyl-AEGTFTSDVSSYLEEQAAREFIAWLVRGRGK([AEEA-AEEA-γGlu-Inp-C20 diacid])-NH2) | 300 to 800 nM |  |

Reference: US9067977B2, “Peptides derivatized with A-B-C-D- and their therapeutical use” (Novo Nordisk A/S, priority 2007, dated 2015)
